Test results as given in patent US20120172340A1, “Compositions and Methods for Selectively Activating Human Sirtuins” (BIOMOL International L.P., priority 2004, published 2012).
“Also recorded” adds a separate entry of the source.

Assays:
human SIRT1 = target: T1, human SIRT1 (Homo sapiens, UniProt Q96EB6); assay: SIRT1 rate measurement, fluorogenic p53-382 peptide deacetylation; format: biochemical; details: 100 μM test compounds; 25 μM NAD+, 25 μM p53-382 peptide
T1 construct: made in house; host or cells: E. coli
T1 sequence (Q96EB6 1-747): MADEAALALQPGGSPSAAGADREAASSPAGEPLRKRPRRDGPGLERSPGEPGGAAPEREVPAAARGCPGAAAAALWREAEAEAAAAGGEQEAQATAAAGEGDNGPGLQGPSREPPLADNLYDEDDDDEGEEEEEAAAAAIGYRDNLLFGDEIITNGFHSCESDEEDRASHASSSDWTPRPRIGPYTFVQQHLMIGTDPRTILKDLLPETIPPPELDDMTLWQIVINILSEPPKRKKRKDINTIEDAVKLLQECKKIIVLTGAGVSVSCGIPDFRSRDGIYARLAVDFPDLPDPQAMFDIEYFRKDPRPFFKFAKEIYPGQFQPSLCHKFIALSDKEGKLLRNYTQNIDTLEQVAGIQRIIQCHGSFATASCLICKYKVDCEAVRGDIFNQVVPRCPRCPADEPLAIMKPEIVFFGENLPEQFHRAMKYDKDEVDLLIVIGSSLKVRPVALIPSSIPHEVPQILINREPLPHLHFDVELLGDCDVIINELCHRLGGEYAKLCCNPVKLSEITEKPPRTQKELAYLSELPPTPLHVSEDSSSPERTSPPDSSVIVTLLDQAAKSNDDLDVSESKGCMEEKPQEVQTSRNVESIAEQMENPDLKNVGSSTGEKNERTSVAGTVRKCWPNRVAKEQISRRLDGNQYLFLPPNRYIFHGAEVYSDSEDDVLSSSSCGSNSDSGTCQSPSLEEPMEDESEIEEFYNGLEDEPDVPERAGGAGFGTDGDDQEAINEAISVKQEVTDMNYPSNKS

human SIRT5 = target: T2, human SIRT5 (Homo sapiens, UniProt Q9NXA8); assay: SIRT5 rate measurement, fluorogenic p53-382 peptide deacetylation; format: biochemical; set-up: His6 (histidine tag, 2.5 kDa) (N); made in house; host or cells: E. coli; details: for relative activation of SIRT5 versus SIRT1 (in words): comparison of Table 2 SIRT5 and SIRT1 data
T2 sequence (Q9NXA8 37-310): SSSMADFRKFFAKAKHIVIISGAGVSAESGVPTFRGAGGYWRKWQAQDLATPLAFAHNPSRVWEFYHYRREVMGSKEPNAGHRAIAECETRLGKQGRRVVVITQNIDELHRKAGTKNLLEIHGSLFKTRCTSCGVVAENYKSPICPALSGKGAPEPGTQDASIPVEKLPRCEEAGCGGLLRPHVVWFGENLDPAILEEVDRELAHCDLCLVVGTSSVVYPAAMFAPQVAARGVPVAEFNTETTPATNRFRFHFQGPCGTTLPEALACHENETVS

[1] = 200 μM test compounds, 500 μM NAD+, 100 μM p53-382 peptide

## Oc1ccc(/C=C/c2ccccc2)cc1O [3,4-Dihydroxy-trans-stilbene]
Human SIRT1
  SIRT1 Ratio to Control Rates Mean ± SE Compounds at 100 μM: 1.64 ± 0.10
Human SIRT5
  identified as human SIRT5 inhibitor: SIRT5 inhibitors
Human SIRT5; [1]
  SIRT5 Ratio of Control Rates Mean ± SE Compounds at 200 μM: 0.58 ± 0.25

## Oc1cccc(/C=C/c2ccccc2)c1 [3-Hydroxy-trans-stilbene]
Human SIRT1
  SIRT1 Ratio to Control Rates Mean ± SE Compounds at 100 μM: 2.36 ± 0.07
Human SIRT5
  identified as human SIRT5 inhibitor: SIRT5 inhibitors
Human SIRT5; [1]
  SIRT5 Ratio of Control Rates Mean ± SE Compounds at 200 μM: 0.79 ± 0.06

## COc1ccc(/C=C/c2ccccc2)cc1 [4-Methoxy-trans-stilbene]
Human SIRT1
  SIRT1 Ratio to Control Rates Mean ± SE Compounds at 100 μM: 0.84 ± 0.09
Human SIRT5
  identified as human SIRT5 inhibitor: SIRT5 inhibitors
Human SIRT5; [1]
  SIRT5 Ratio of Control Rates Mean ± SE Compounds at 200 μM: 0.79 ± 0.20

## Oc1cc(O)cc(/C=C/c2ccc(Cl)cc2)c1 [BML-217, 3,5-Dihydroxy-4′-chloro-trans-stilbene]
Human SIRT1
  SIRT1 Ratio to Control Rates Mean ± SE Compounds at 100 μM: 10.6 ± 0.4
Human SIRT5; [1]
  SIRT5 Ratio of Control Rates Mean ± SE Compounds at 200 μM: 13.6 ± 0.4
  maximum stimulation observed for SIRT5, increase in activity: 13.6 fold
Human SIRT5
  relative activation of SIRT5 versus SIRT1 (in words): potent activator of SIRT5 and SIRT1

## Oc1cc(O)cc(/C=C/c2ccc3ccccc3c2)c1 [BML-218, (E)-1-(3,5-Dihydroxyphenyl)-2-(2-napthyl)ethene]
Human SIRT1
  SIRT1 Ratio to Control Rates Mean ± SE Compounds at 100 μM: 3.05 ± 0.37
Human SIRT5; [1]
  SIRT5 Ratio of Control Rates Mean ± SE Compounds at 200 μM: 2.47 ± 0.22

## CC(=O)Oc1ccc(/C=C/c2cc(O)cc(O)c2)cc1 [BML-221, 3,5-Dihydroxy-4′-acetoxy-trans-stilbene]
Human SIRT1
  SIRT1 Ratio to Control Rates Mean ± SE Compounds at 100 μM: 3.05 ± 0.54
Human SIRT5; [1]
  SIRT5 Ratio of Control Rates Mean ± SE Compounds at 200 μM: 2.89 ± 0.15

## CC(=O)Nc1ccc(/C=C/c2cc(O)cc(O)c2)cc1 [BML-222, 3,5-Dihydroxy-4′-acetamide-trans-stilbene]
Human SIRT1
  SIRT1 Ratio to Control Rates Mean ± SE Compounds at 100 μM: 1.88 ± 0.11
Human SIRT5; [1]
  SIRT5 Ratio of Control Rates Mean ± SE Compounds at 200 μM: 2.26 ± 0.17

## COc1cc(O)cc(/C=C/c2ccc(NC(C)=O)cc2)c1 [BML-223, 3-methoxy-5-hydroxy-4′-acetamido-trans-stilbene]
Human SIRT5; [1]
  SIRT5 Ratio of Control Rates Mean ± SE Compounds at 200 μM: 3.10 ± 0.016

## Oc1cc(O)cc(/C=C/C2CCCCC2)c1 [BML-224, (E)-1-(3,5-Dihydroxyphenyl)-2-(cyclohexyl)ethene]
Human SIRT1
  SIRT1 Ratio to Control Rates Mean ± SE Compounds at 100 μM: 1.30 ± 0.04
Human SIRT5; [1]
  SIRT5 Ratio of Control Rates Mean ± SE Compounds at 200 μM: 1.40 ± 0.23

## CCc1ccc(/C=C/c2cc(O)cc(O)c2)cc1 [BML-225, 3,5-Dihydroxy-4′-ethyl-trans-stilbene]
Human SIRT1
  SIRT1 Ratio to Control Rates Mean ± SE Compounds at 100 μM: 9.373 ± 0.014
Human SIRT5; [1]
  SIRT5 Ratio of Control Rates Mean ± SE Compounds at 200 μM: 8.41 ± 0.36

## CC(=O)Oc1cc(O)cc(/C=C/c2ccc(O)cc2)c1 [BML-227, 3,4′-Dihydroxy-5-acetoxy-trans-stilbene]
Human SIRT1
  SIRT1 Ratio to Control Rates Mean ± SE Compounds at 100 μM: 2.69 ± 0.08
Human SIRT5; [1]
  SIRT5 Ratio of Control Rates Mean ± SE Compounds at 200 μM: 2.09 ± 0.25

## Cc1ccc(/C=C/c2cc(O)cc(O)c2)cc1 [BML-228, 3,5-Dihydroxy-4′-methyl-trans-stilbene]
Human SIRT1
  SIRT1 Ratio to Control Rates Mean ± SE Compounds at 100 μM: 7.72 ± 0.12
Human SIRT5; [1]
  SIRT5 Ratio of Control Rates Mean ± SE Compounds at 200 μM: 8.12 ± 0.31

## O=[N+]([O-])c1ccc(/C=C/c2cc(O)cc(O)c2)cc1 [BML-229, 3,5-Dihydroxy-4′-nitro-trans-stilbene]
Human SIRT1
  SIRT1 Ratio to Control Rates Mean ± SE Compounds at 100 μM: 6.78 ± 0.22
Human SIRT5; [1]
  SIRT5 Ratio of Control Rates Mean ± SE Compounds at 200 μM: 3.43 ± 0.10

## CSc1ccc(/C=C/c2cc(O)cc(O)c2)cc1 [BML-230, 3,5-Dihydroxy-4′-thiomethyl-trans-stilbene]
Human SIRT1
  SIRT1 Ratio to Control Rates Mean ± SE Compounds at 100 μM: 6.84 ± 1.26
Human SIRT5; [1]
  SIRT5 Ratio of Control Rates Mean ± SE Compounds at 200 μM: 4.60 ± 0.17

## CC(C)c1ccc(/C=C/c2cc(O)cc(O)c2)cc1 [BML-231, 3,5-Dihydroxy-4′-isopropyl-trans-stilbene]
Human SIRT1
  SIRT1 Ratio to Control Rates Mean ± SE Compounds at 100 μM: 6.01 ± 0.15
Human SIRT5; [1]
  SIRT5 Ratio of Control Rates Mean ± SE Compounds at 200 μM: 8.41 ± 0.22

## Oc1cc(O)cc(/C=C/c2ccncc2)c1 [BML-236, (E)-1-(3,5-Dihydroxyphenyl)-2-(4-pyridyl)ethene]
Human SIRT1
  SIRT1 Ratio to Control Rates Mean ± SE Compounds at 100 μM: 1.26 ± 0.12
Human SIRT5; [1]
  SIRT5 Ratio of Control Rates Mean ± SE Compounds at 200 μM: 2.49 ± 0.29

## COC(=O)c1ccc(/C=C/c2cc(O)cc(O)c2)cc1 [BML-237, 3,5-Dihydroxy-4′-carbomethoxy-trans-stilbene]
Human SIRT1
  SIRT1 Ratio to Control Rates Mean ± SE Compounds at 100 μM: 2.74 ± 0.37
Human SIRT5; [1]
  SIRT5 Ratio of Control Rates Mean ± SE Compounds at 200 μM: 4.50 ± 0.28
Human SIRT5
  relative activation of SIRT5 versus SIRT1 (in words): selective activators of SIRT5 as compared to SIRT1

## O=C(O)c1ccc(/C=C/c2cc(O)cc(O)c2)cc1 [BML-238, 3,5-Dihydroxy-4′-carboxy-trans-stilbene]
Human SIRT1
  SIRT1 Ratio to Control Rates Mean ± SE Compounds at 100 μM: 1.36 ± 0.10
Human SIRT5; [1]
  SIRT5 Ratio of Control Rates Mean ± SE Compounds at 200 μM: 2.09 ± 0.25

## CCSc1ccc(/C=C/c2cc(O)cc(O)c2)cc1 [BML-243, 3,5-Dihydroxy-4′-thioethyl-trans-stilbene]
Human SIRT1
  SIRT1 Ratio to Control Rates Mean ± SE Compounds at 100 μM: 12.6 ± 0.4
  maximum stimulation observed for SIRT1, increase in activity: 12.6 fold
Human SIRT5; [1]
  SIRT5 Ratio of Control Rates Mean ± SE Compounds at 200 μM: 2.12 ± 0.34
Human SIRT5
  relative activation of SIRT5 versus SIRT1 (in words): selective activators of SIRT1 as compared to SIRT5; also recorded: relatively less potent SIRT5 activators

## O=C(/C=C/c1ccc(O)c(O)c1)c1ccc(O)cc1O [Butein, 3,4,2′,4′-Tetrahydroxychalcone]
Human SIRT1
  SIRT1 Ratio to Control Rates Mean ± SE Compounds at 100 μM: 8.53 ± 0.89
Human SIRT5; [1]
  SIRT5 Ratio of Control Rates Mean ± SE Compounds at 200 μM: 2.19 ± 0.10
Human SIRT5
  relative activation of SIRT5 versus SIRT1 (in words): selective activators of SIRT1 as compared to SIRT5; also recorded: relatively less potent SIRT5 activation

## O=c1c(O)c(-c2ccc(O)c(O)c2)oc2cc(O)ccc12 [Fisetin, 3,7,3′,4′-Tetrahydroxyflavone]
Human SIRT1
  SIRT1 Ratio to Control Rates Mean ± SE Compounds at 100 μM: 6.58 ± 0.69
Human SIRT5; [1]
  SIRT5 Ratio of Control Rates Mean ± SE Compounds at 200 μM: 2.61 ± 0.19
Human SIRT5
  relative activation of SIRT5 versus SIRT1 (in words): relatively less potent SIRT5 activation

## CC(Cc1ccc(O)c(O)c1)C(C)Cc1ccc(O)c(O)c1 (stereo not drawn) [NDGA, Nordihydroguaiaretic acid]
Human SIRT1
  SIRT1 Ratio to Control Rates Mean ± SE Compounds at 100 μM: 1.738 ± 0.088
Human SIRT5; [1]
  SIRT5 Ratio of Control Rates Mean ± SE Compounds at 200 μM: 1.91 ± 0.02

## Oc1cc(O)cc(/C=C/c2ccc(O)c(O)c2)c1 [Piceatannol, 3,5,3′,4′-Tetrahydroxy-trans-stilbene]
Human SIRT1
  SIRT1 Ratio to Control Rates Mean ± SE Compounds at 100 μM: 7.90 ± 0.50
Human SIRT5; [1]
  SIRT5 Ratio of Control Rates Mean ± SE Compounds at 200 μM: 3.23 ± 0.21
Human SIRT5
  relative activation of SIRT5 versus SIRT1 (in words): relatively more potent at activating SIRT1 than SIRT5

## Oc1cc(O)cc(/C=C/c2ccccc2)c1 [Pinosylvin, 3,5-Dihydroxy-trans-stilbene]
Human SIRT1
  SIRT1 Ratio to Control Rates Mean ± SE Compounds at 100 μM: 9.95 ± 0.45
Human SIRT5; [1]
  SIRT5 Ratio of Control Rates Mean ± SE Compounds at 200 μM: 2.71 ± 0.092
Human SIRT5
  relative activation of SIRT5 versus SIRT1 (in words): relatively more potent at activating SIRT1 than SIRT5

## O=c1c(O)c(-c2ccc(O)c(O)c2)oc2cc(O)cc(O)c12 [Quercetin, 3,5,7,3′,4′-Pentahydroxyflavone]
Human SIRT1
  SIRT1 Ratio to Control Rates Mean ± SE Compounds at 100 μM: 4.59 ± 0.47
Human SIRT5; [1]
  SIRT5 Ratio of Control Rates Mean ± SE Compounds at 200 μM: 2.18 ± 0.10
Human SIRT5
  relative activation of SIRT5 versus SIRT1 (in words): relatively less potent SIRT5 activation

## Cc1ccc(NC(=O)c2cccc(N(C)C)c2)cc1NC(=O)c1ccc(O)cc1 [ZM 336372, N-[5-(3-dimethylaminobenzamido)-2-methylphenyl]-4-hydroxybenzamide]
Human SIRT1
  SIRT1 Ratio to Control Rates Mean ± SE Compounds at 100 μM: 3.5 ± 1.1
Human SIRT5
  identified as human SIRT5 inhibitor: SIRT5 inhibitors
  relative activation of SIRT5 versus SIRT1 (in words): selective activators of SIRT1 as compared to SIRT5
Human SIRT5; [1]
  SIRT5 Ratio of Control Rates Mean ± SE Compounds at 200 μM: 0.74 ± 0.05
